Reference: patent US5656591A, “Antimicrobial agents and method for treating products therewith” (Morinaga Milk Industry Co., Ltd., priority 1992, dated 1997)

Test system: Staphylococcus aureus (JCM-2151)
Test: Viability assay (survival rate) in cow's milk medium
Assay type: cell-based
Parameters: key to survival rate: % of control colony count 1 (control colony count 2 at peptide 0)
Details: for effect of the coexisting compound on the antimicrobial activity of the lactoferrin hydrolysate (in words): with lactoferrin hydrolysate 1; for antimicrobial activity of the compound added without antimicrobial peptide or lactoferrin hydrolysate (in words): compound alone; for effect of the coexisting compound on the antimicrobial activity of the antimicrobial peptide (in words): with antimicrobial peptide Seq. ID No. 26
Procedure: The colonies grown on the culture medium were scraped by a platinum loop and cultivated in 1% peptone (by Difco Company) culture medium for several hours at 37° C., and the resultant microbial culture at logarithmic phase was used as the preculture in a serial concentration of 3×10^8 /ml.
A quantity of the resultant solutions of the samples were selectively mixed with a quantity of the basal medium, thereby test media for the respective tests were prepared in the combinations and eventual concentrations as specified in the respective tests.
Utilizing the samples (5), (7), (8), (9), (10), (14), (15), (17), (18) and (19), test media were prepared in the same manner as in the preparation of the test media containing sample (3) and the like, except that the aqueous solution (in the cases of samples (5) and (7), aqueous suspensions) were not dealt with sterilization filters.
To 2 ml aliquots of test media prepared in (3-1) (supra), […] aliquots of the preculture of Staphylococcus aureus prepared in (1) (2. Method, supra) were added, then incubated at 37° C. for 1 hour, 200 μl aliquots of the resultant cultures were taken out and diluted with 1% peptone solution in a series of 10^n respectively, 110 μl aliquots of the resultant dilution series were spread onto plates of standard agar culture medium, and after incubation at 37° C. for 24 hours the number of colonies grown on the plates were counted (Test. Colony Count).
Control coloney counts 1 were determined in the same manner as in the determination of the test coloney counts, except that […] aliquots of the preculture of Staphylococcus aureus prepared in (1) (2. Method, supra) were added to 2 ml aliquots of the respective control media 1 prepared in (3-2) (supra). Furthermore, control coloney counts 2 were determined in the same manner as in the determination of the test coloney counts, except that […] aliquots of the preculture of Staphylococcus aureus prepared in (1) (supra) were added to 2 ml aliquots of the respective control media 1 prepared in (3-2) (supra).
Survival rate 1=(Test Colony Count/Control Colony Count 1)×100
Survival rate 2=(Control Colony Count 2/Control Colony Count 1)×100
(Note: In the tables shown hereinafter, vulues of survival rate 2 are indicated in the row where the concentration of antimicrobial peptide or lactoferrin hydrolysate is 0.)

| Compound | antimicrobial activity of the compound added without antimicrobial peptide or lactoferrin hydrolysate (in words) | effect of the coexisting compound on the antimicrobial activity of the antimicrobial peptide (in words) | also measured |
| --- | --- | --- | --- |
| O=C(O)CC(O)(CC(=O)O)C(=O)O [citric acid, Citric Acid] | – | – | effect of the coexisting compound on the antimicrobial activity of the lactoferrin hydrolysate (in words): augments the antimicrobial activity of the lactoferrin hydrolysate 1 |
| CCO [ethyl alcohol, Ethyl Alcohol] | no antimicrobial activity was observed | potentiates the antimicrobial activity of the peptide | – |
| OCC(O)CO [glycerol, Glycerol] | no antimicrobial activity was observed | augments the antimicrobial activity of the peptide | – |
| CC(O)CO (stereo not shown) [propylene glycol, Propylene Glycol] | no antimicrobial activity was observed | augmented the antimicrobial activity of the peptide | – |
| OC[C@H]1O[C@@H]2O[C@H]3[C@H](O)[C@@H](O)[C@@H](O[C@H]4[C@H](O)[C@@H](O)[C@@H](O[C@H]5[C@H](O)[C@@H](O)[C@@H](O[C@H]6[C@H](O)[C@@H](O)[C@@H](O[C@H]7[C@H](O)[C@@H](O)[C@@H](O[C@H]8[C@H](O)[C@@H](O)[C@@H](O[C@H]1[C@H](O)[C@H]2O)O[C@@H]8CO)O[C@@H]7CO)O[C@@H]6CO)O[C@@H]5CO)O[C@@H]4CO)O[C@@H]3CO [β-cyclodextrin, β-Cyclodextrin] | no antimicrobial activity was observed | augments the antimicrobial activity of the peptide | survival rate (Test 4: peptide 0, β-cyclodextrin 0.1 mg/ml): 100; survival rate (Test 4: peptide 0, β-cyclodextrin 1 mg/ml): 109; survival rate (Test 4: peptide 0, β-cyclodextrin 2.5 mg/ml): 88 |
| Polyphosphoric Acid | no antimicrobial activity was observed | – | survival rate (Test 12: lactoferrin hydrolysate 0, polyphosphoric acid 0.1 mg/ml): 140; survival rate (Test 12: lactoferrin hydrolysate 0, polyphosphoric acid 1 mg/ml): 124; survival rate (Test 12: lactoferrin hydrolysate 0, polyphosphoric acid 5 mg/ml): 111; effect of the coexisting compound on the antimicrobial activity of the lactoferrin hydrolysate (in words): augments the antimicrobial activity of the lactoferrin hydrolysate 1 |
| tocopherol | no antimicrobial activity was observed | augments the antimicrobial activity of the peptide | survival rate (Test 3: peptide 0, tocopherol 0.1 mg/ml): 101; survival rate (Test 3: peptide 0, tocopherol 0.5 mg/ml): 113; survival rate (Test 3: peptide 0, tocopherol 1 mg/ml): 112 |
